Test results: publication PMC10962247 (Science translational medicine, 2024)
pIC50: −log10 of the molar value.

Biological target: T1, Glycogen synthase 1 (GYS1) (Homo sapiens, UniProt P13807)
T1 sequence (P13807 1-737): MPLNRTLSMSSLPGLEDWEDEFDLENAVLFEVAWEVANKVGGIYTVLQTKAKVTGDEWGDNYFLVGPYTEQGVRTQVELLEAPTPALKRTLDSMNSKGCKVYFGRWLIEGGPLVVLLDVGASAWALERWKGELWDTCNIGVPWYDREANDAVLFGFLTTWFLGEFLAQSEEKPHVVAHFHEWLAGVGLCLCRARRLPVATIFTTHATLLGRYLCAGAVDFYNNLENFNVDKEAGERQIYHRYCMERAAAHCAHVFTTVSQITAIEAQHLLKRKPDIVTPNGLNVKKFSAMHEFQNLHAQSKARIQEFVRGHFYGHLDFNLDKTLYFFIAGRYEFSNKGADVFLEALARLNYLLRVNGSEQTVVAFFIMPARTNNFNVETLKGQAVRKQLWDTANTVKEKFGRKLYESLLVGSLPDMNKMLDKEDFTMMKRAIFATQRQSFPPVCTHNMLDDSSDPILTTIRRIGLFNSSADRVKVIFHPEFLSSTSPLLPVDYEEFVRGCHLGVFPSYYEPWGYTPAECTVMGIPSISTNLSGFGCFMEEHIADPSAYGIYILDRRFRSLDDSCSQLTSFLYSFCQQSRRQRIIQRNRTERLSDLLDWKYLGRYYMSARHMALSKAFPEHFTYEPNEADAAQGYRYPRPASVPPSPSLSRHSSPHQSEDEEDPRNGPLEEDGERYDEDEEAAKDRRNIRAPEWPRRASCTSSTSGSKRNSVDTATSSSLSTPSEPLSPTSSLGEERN
T1 sequence (P46976 2-350 partner): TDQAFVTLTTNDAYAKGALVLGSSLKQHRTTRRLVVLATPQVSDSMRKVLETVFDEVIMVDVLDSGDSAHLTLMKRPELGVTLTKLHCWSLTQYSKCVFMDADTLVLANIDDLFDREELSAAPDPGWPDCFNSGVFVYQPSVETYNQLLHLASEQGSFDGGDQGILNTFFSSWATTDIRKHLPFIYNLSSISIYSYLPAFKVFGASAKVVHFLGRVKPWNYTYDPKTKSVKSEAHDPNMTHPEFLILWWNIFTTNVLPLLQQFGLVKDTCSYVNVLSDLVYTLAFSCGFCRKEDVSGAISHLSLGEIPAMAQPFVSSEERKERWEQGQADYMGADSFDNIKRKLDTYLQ
Assay: PK/LDH coupled enzyme assay with recombinant GYS1 in the presence of G6P
Type: biochemical

- pIC50: 7.39
SMILES: CC(C)c1ccc([C@@H](NC(=O)[C@@H]2C[C@@H](F)CN2C(=O)Cc2cn[nH]n2)c2ccccc2)cc1 [MZ-101]
